From patent publication US8952024B2, “Herbicidal pyrimidone derivatives” (E I du Pont de Nemours and Company, priority 2009, dated 2015)

Legend:
Experiment in all cases: Test D pre-/postemergence plant response
Type in all cases: in vivo
Conditions in all cases: Postemergence
[1] = tested on: itchgrass (Rottboellia cochinchinensis)
Excerpt: (§1) Seeds of plant species selected from bermudagrass (Cynodon dactylon), Surinam grass (Brachiaria decumbens), large crabgrass (Digitaria sanguinalis), green foxtail (Setaria viridis), goosegrass (Eleusine indica), johnsongrass (Sorghum halepense), kochia (Kochia scoparia), morningglory (pitted morningglory, Ipomoea lacunosa), nutsedge (purple nutsedge, Cyperus rotundus), ragweed (common ragweed, Ambrosia elatior), black mustard (Brassica nigra), guineagrass (Panicum maximum), dallisgrass (Paspalum dilatatum), barnyardgrass (Echinochloa crus-galli), sandbur (southern sandbur, Cenchrus echinatus), sowthistle (common sowthistle, Sonchus oleraceous), prickly sida (Sida spinosa), Italian ryegrass (Lolium multiflorum), purslane (common purslane, Portulaca oleracea), signalgrass (broadleaf signalgrass, Brachiaria platyphylla), groundsel (common groundsel, Senecio vulgaris), chickweed (common chickweed, Stellaria media), dayflower (Virginia (VA) dayflower, Commelina virginica), bluegrass (annual bluegrass, Poa annua), naked crabgrass (Digitaria nuda), itchgrass (Rottboellia cochinchinensis), quackgrass (Elytrigia repens), field bindweed (Convolvulus arvensis), spanishneedles (Bidens bipinnata), mallow (common mallow, Malva sylvestris) and Russian thistle (Salsola kali), were planted into a blend of loam soil and sand and treated preemergence with test chemicals formulated in a non-phytotoxic solvent mixture which included a surfactant. At the same time, plants from these weed species were treated with postemergence applications of the test chemicals formulated in the same manner. Plants ranged in height from 2 to 18 cm (1- to 4-leaf stage) for postemergence treatments.
(§2) Treated plants and controls were maintained in a greenhouse for 14 to 21 days, after which time all species were visually evaluated and compared to controls. Plant response ratings, summarized in Table D, are based on a scale of 0 to 100 where 0 is no effect and 100 is complete control. A dash (-) response means no test result.

[2] = tested on: purslane (common purslane, Portulaca oleracea)
Excerpt: as §1, §2

[3] = tested on: sowthistle (common sowthistle, Sonchus oleraceous)
Excerpt: as §1, §2

[4] = tested on: kochia (Kochia scoparia)
Excerpt: as §1, §2

[5] = tested on: guineagrass (Panicum maximum)
Excerpt: as §1, §2

[6] = tested on: large crabgrass (Digitaria sanguinalis)
Excerpt: as §1, §2

[7] = tested on: black mustard (Brassica nigra)
Excerpt: as §1, §2

[8] = tested on: morningglory (pitted morningglory, Ipomoea lacunosa)
Excerpt: as §1, §2

[9] = tested on: Surinam grass (Brachiaria decumbens)
Excerpt: as §1, §2

[10] = tested on: nutsedge (purple nutsedge, Cyperus rotundus)
Excerpt: as §1, §2

[11] = tested on: spanishneedles (Bidens bipinnata)
Excerpt: as §1, §2

[12] = tested on: signalgrass (broadleaf signalgrass, Brachiaria platyphylla)
Excerpt: as §1, §2

[13] = tested on: dallisgrass (Paspalum dilatatum)
Excerpt: as §1, §2

[14] = tested on: Russian thistle (Salsola kali)
Excerpt: as §1, §2

[15] = tested on: barnyardgrass (Echinochloa crus-galli)
Excerpt: as §1, §2

[16] = tested on: chickweed (common chickweed, Stellaria media)
Excerpt: as §1, §2

[17] = 125 g ai/ha, scale 0 to 100 (0 no effect, 100 complete control)
[18] = 250 g ai/ha, scale 0 to 100 (0 no effect, 100 complete control)
[19] = 62 g ai/ha, scale 0 to 100 (0 no effect, 100 complete control)

## CCCCn1c(-c2ccccc2)ncc(C(=O)C2=C(O)C3CCC(C3)C2=O)c1=O (centres unmarked) [Compound 240]
[1]; 31 g ai/ha, scale 0 to 100
  Plant response rating, Itchgrass: 75
[1]; [17]
  Plant response rating, Itchgrass: 80
[1]; [18]
  Plant response rating, Itchgrass: 80
[1]; [19]
  Plant response rating, Itchgrass: 75
[2]; 31 g ai/ha, scale 0 to 100
  Plant response rating, Purslane: 0
[2]; [18]
  Plant response rating, Purslane: 50
[2]; [19]
  Plant response rating, Purslane: 35
[3]; 31 g ai/ha, scale 0 to 100
  Plant response rating, Sowthistle: 98
[3]; [17]
  Plant response rating, Sowthistle: 98
[3]; [18]
  Plant response rating, Sowthistle: 98
[3]; [19]
  Plant response rating, Sowthistle: 98
[4]; 31 g ai/ha, scale 0 to 100
  Plant response rating, Kochia: 20
[4]; [17]
  Plant response rating, Kochia: 65
[4]; [18]
  Plant response rating, Kochia: 70
[4]; [19]
  Plant response rating, Kochia: 65
[5]; 31 g ai/ha, scale 0 to 100
  Plant response rating, Guineagrass: 40
[5]; [17]
  Plant response rating, Guineagrass: 80
[5]; [18]
  Plant response rating, Guineagrass: 80
[5]; [19]
  Plant response rating, Guineagrass: 65
[6]; 31 g ai/ha, scale 0 to 100
  Plant response rating, Crabgrass, Large: 40
[6]; [17]
  Plant response rating, Crabgrass, Large: 65
[6]; [18]
  Plant response rating, Crabgrass, Large: 70
[6]; [19]
  Plant response rating, Crabgrass, Large: 65
[7]; 31 g ai/ha, scale 0 to 100
  Plant response rating, Black Mustard: 70
[7]; [17]
  Plant response rating, Black Mustard: 98
[7]; [18]
  Plant response rating, Black Mustard: 98
[7]; [19]
  Plant response rating, Black Mustard: 80
[8]; 31 g ai/ha, scale 0 to 100
  Plant response rating, Morningglory: 65
[8]; [17]
  Plant response rating, Morningglory: 90
[8]; [18]
  Plant response rating, Morningglory: 95
[8]; [19]
  Plant response rating, Morningglory: 80
[9]; 31 g ai/ha, scale 0 to 100
  Plant response rating, Surinam Grass: 70
[9]; [17]
  Plant response rating, Surinam Grass: 95
[9]; [18]
  Plant response rating, Surinam Grass: 95
[9]; [19]
  Plant response rating, Surinam Grass: 70
[10]; 31 g ai/ha, scale 0 to 100
  Plant response rating, Nutsedge, Purple: 0
[10]; [17]
  Plant response rating, Nutsedge, Purple: 5
[10]; [18]
  Plant response rating, Nutsedge, Purple: 20
[10]; [19]
  Plant response rating, Nutsedge, Purple: 5
[11]; 31 g ai/ha, scale 0 to 100
  Plant response rating, Spanishneedles: 65
[11]; [17]
  Plant response rating, Spanishneedles: 75
[11]; [18]
  Plant response rating, Spanishneedles: 75
[11]; [19]
  Plant response rating, Spanishneedles: 65
[12]; 31 g ai/ha, scale 0 to 100
  Plant response rating, Signalgrass: 20
[12]; [17]
  Plant response rating, Signalgrass: 75
[12]; [18]
  Plant response rating, Signalgrass: 85
[12]; [19]
  Plant response rating, Signalgrass: 75
[13]; 31 g ai/ha, scale 0 to 100
  Plant response rating, Dallisgrass: 5
[13]; [17]
  Plant response rating, Dallisgrass: 75
[13]; [18]
  Plant response rating, Dallisgrass: 75
[13]; [19]
  Plant response rating, Dallisgrass: 70
[14]; 31 g ai/ha, scale 0 to 100
  Plant response rating, Russian Thistle: 35
[14]; [18]
  Plant response rating, Russian Thistle: 35
[14]; [19]
  Plant response rating, Russian Thistle: 35
[15]; 31 g ai/ha, scale 0 to 100
  Plant response rating, Barnyardgrass: 80
[15]; [17]
  Plant response rating, Barnyardgrass: 95
[15]; [18]
  Plant response rating, Barnyardgrass: 95
[15]; [19]
  Plant response rating, Barnyardgrass: 95
[16]; 31 g ai/ha, scale 0 to 100
  Plant response rating, Chickweed: 25
[16]; [17]
  Plant response rating, Chickweed: 60
[16]; [18]
  Plant response rating, Chickweed: 70
[16]; [19]
  Plant response rating, Chickweed: 50
